These results are taken from paper PMC10057528, “Trypanosoma cruzi Sirtuin 2 as a Relevant Druggable Target: New Inhibitors Developed by Computer-Aided Drug Design” (Pharmaceuticals, 2023).

Where two headings read alike, the source gives them in different places.

The subject of one data set is Chagas disease. The arrangement: method as in PMID 29357372. As to conditions: cited from earlier work.
The test system of data set [1] is T. cruzi Sir2-related protein 1 (TcSir2rp1). Further details: method as in PMID 29357372, PMID 19937668. As to conditions: cited from earlier work.
A further data set has as its target T1, TcSir2 (Trypanosoma cruzi, UniProt Q4DP02).
T1 sequence (Q4DP02 1-359): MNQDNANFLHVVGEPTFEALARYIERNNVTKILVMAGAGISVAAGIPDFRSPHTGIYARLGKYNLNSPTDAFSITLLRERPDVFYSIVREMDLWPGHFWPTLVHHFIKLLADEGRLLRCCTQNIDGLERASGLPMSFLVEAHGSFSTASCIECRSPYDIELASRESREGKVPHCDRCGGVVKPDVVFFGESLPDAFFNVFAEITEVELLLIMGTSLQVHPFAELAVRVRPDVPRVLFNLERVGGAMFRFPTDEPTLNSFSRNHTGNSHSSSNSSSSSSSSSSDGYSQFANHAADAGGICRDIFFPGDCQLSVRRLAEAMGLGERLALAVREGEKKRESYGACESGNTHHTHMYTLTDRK
Nature of the data set: Recombinant TcSir2 activity assay (fluorescent peptide deacetylation). It counts as biochemical. The note with it: for IC50: recombinant TcSir2 0.1 μM, 10 μM peptide, 25 μM NAD+, 37 °C, ND = values measured but did not converge IC50 significantly. An excerpt:
The peptide substrate (Abz-Gly-Pro-AcetylLys-Ser-Gln-EDDnp, where Abz stands for ortho-aminobenzoic), based on the TcSir2 specificity, was acquired from AminoTech (São Paulo, Brazil). This substrate contains an acetyl-Lys, which is available for trypsin cleavage only when the TcSir2 deacetylates the lysine side chain. After peptide deacetylation and cleavage, the fluorescent moiety (Abz) and the EDDnp suppressor group (N-[2,4-dinitrophenyl] ethylenediamine) are separated, and fluorescence (420 nm) can occur upon excitation at 320 nm. The TcSir2 activity assays were performed at 37 °C in a 25 mM Tris-HCl buffer with pH 8 and containing 137 mM NaCl, 2.7 mM KCl, and 1 mM MgCl2. The assays used 0.1 μM purified TcSir2 enzyme, 10 μM Abz-Gly-Pro-AcetylLys-Ser-Gln-EDDnp peptide, and 25 μM NAD^+ cofactor. After a 15 min incubation, 12 mM nicotinamide and 0.6 mg/mL trypsin (Sigma Aldrich, Sao Paulo, Brazil, N3376) were added to stop the reaction and cleave the deacetylated peptide (30 min at 37 °C). A control was also prepared without trypsin to detect the baseline fluorescence of the uncleaved peptide. Increasing concentrations of the putative inhibitory compound prepared in DMSO were also tested under the same conditions, with controls to detect the potential effect of DMSO at a maximum concentration of 5% (v/v) on TcSir2. Fluorescence was measured using a TECAN-InfinityPro2000 plate reader.
The percentage of inhibition data was calculated using the equation: Inhibition (%) = (1 − vi/vc) × 100, where vi represents the initial rate in the presence of the putative TcSir2 inhibitor, and vc is the initial rate of the control assay containing only DMSO. IC50 values were calculated based on the percentage of inhibition and concentration of the inhibitor using non-linear regression with least squares on GraphPad Prism (v8.1, GraphPad software, La Jolla, CA, USA). […] Km and Vmax in the presence and absence of the inhibitor were obtained by fitting the initial rate and [NAD^+] into the Michaelis-Menten equation on GraphPad Prism (GraphPad Prism version v8.1, for Windows, GraphPad Software, San Diego, California USA, www.graphpad.com).
Supplementary methods – Enzyme kinetic characterisation
The enzyme kinetic assay for TcSir2, based on a previous publication1 was divided into three steps. In the first one, the recombinant TcSir2, NAD+ and the peptide substrate (Abz-Gly-Pro-AcetylLys-Ser-Gln-EDDnp) were incubated for 15 min at 37° C.
In the second step, in order to stop the reaction, 12 mM nicotinamide was added to the reaction medium. Finally in the third step trypsin was added and the reaction medium incubated for 30 min at 37° C, as previously described1. Trypsin cleaves this substrate in the linkage between lysine and serine only when the acetyl moiety had been previously […]
when lysine was acetylated2. […]
r2 = 0.99, Fig. S5a) and the peptide substrate (2.1 µM, r2 = 0.97, Fig. S5b) were determined using seven different substrate concentrations, whereas one of them was kept constant.

For a further data set, the system named is T. cruzi amastigote. Nature of the data set: In vitro trypanocidal activity with amastigote forms (Tulahuen LacZ, CPRG). The note with it: intracellular amastigotes in LLCMK2 cells, ND* = values measured but did not converge IC50 significantly, read-out: IC50 T. cruzi ama. It counts as cell-based, Trypanosoma cruzi. As to the method: In 96-well plates, cells from the LLCMK2 lineage were seeded at a concentration of 5 × 10^4 cells/mL (80 μL). The trypomastigote forms of the Tulahuen LacZ strain were added at a concentration of 5 × 10^5 cells/mL (in a total of 20 μL) and, subsequently incubated for 24 h at 37 °C with a 5% CO2 atmosphere. Next, the trypomastigote forms present in the supernatant were washed, leaving only the amastigote forms. Serial dilutions of the compounds were added (1.95 to 200 µM) and the plate was incubated for 72 h at 37 °C with a 5% CO2 atmosphere. At the end of this period, the CPRG substrate (chlorophenol red β-D-galactopyranoside, 400 μM in 0.3% Triton X-100, pH 7.4) was added and incubated for additional 6 h. After incubation, the sample’s absorbance values were measured using a spectrophotometer at 570 nm.

Data set [2] can be described thus: Mammalian cell viability assay (MTT). It is filed as cell-based. The note with it: rhesus monkey; LLCMK2 cells, MTT, 72 h; ND* = values measured but did not converge IC50 significantly; read-out: EC50 Cell Toxicity. As to the method:
(§1) LLCMK2 cells were maintained in RPMI-1640 medium supplemented with 10% fetal bovine serum (FBS) (Gibco, Carlsbad, CA, USA), penicillin/streptomycin (100 μg.mL^−1 and 0.1 mg.mL^−1, respectively, Sigma-Aldrich, St. Louis, Mo, USA) and 2 mM L-glutamine, and treated every second day. […] All cells were maintained in humidified CO2 at 37 °C. Cells were obtained at the third passage, propagated, and used in experiments between the fourth and fifth passages. Cells were routinely checked for contamination with mycoplasma by PCR. […] The principle of this method, as described by Mosmann et al., consists in measuring the cellular viability of the enzymatic activity of […] of living cells. […] At the end of the period incubation. 50 μL MTT (Sigma-Aldrich Corp. St. Louis, MO, USA) at the concentration of 2 mg.mL^−1. After 4 h incubation, 50 μL DMSO per well was added to dissolve formazan blue crystals. The absorbance was determined at 570 nm using Biotek Synergy HT microplate spectrophotometer. The percentage of cell viability was determined from the following formula (40): Cell Viability (%) = (Treatment Absorbance)/(Control Absorbance negative) × 100.

In a further data set the test system is LLCMK2 cells. Nature of the data set: Mammalian cell viability assay (MTT). It is filed as cell-based. The note with it: Macaca mulatta, LLC-MK2, Figure 4g; read-out: IC50 mammalian cell-lines. As to the method: as §1
Substrate in data set [3]: NC(=O)c1ccc[n+](C2OC(COP(=O)([O-])OP(=O)(O)OCC3OC(n4cnc5c(N)ncnc54)C(O)C3O)C(O)C2O)c1
Briefly: Recombinant TcSir2 activity assay (fluorescent peptide deacetylation). It is filed as biochemical, Trypanosoma cruzi. As to conditions: other: TcSir2, r2 = 0.99; pH 8.0; 37.0 °C. The source says:
The peptide substrate (Abz-Gly-Pro-AcetylLys-Ser-Gln-EDDnp, where Abz stands for ortho-aminobenzoic), based on the TcSir2 specificity, was acquired from AminoTech (São Paulo, Brazil). This substrate contains an acetyl-Lys, which is available for trypsin cleavage only when the TcSir2 deacetylates the lysine side chain. After peptide deacetylation and cleavage, the fluorescent moiety (Abz) and the EDDnp suppressor group (N-[2,4-dinitrophenyl] ethylenediamine) are separated, and fluorescence (420 nm) can occur upon excitation at 320 nm. The TcSir2 activity assays were performed at 37 °C in a 25 mM Tris-HCl buffer with pH 8 and containing 137 mM NaCl, 2.7 mM KCl, and 1 mM MgCl2. […] A control was also prepared without trypsin to detect the baseline fluorescence of the uncleaved peptide. […] Fluorescence was measured using a TECAN-InfinityPro2000 plate reader.
The percentage of inhibition data was calculated using the equation: Inhibition (%) = (1 − vi/vc) × 100, where vi represents the initial rate in the presence of the putative TcSir2 inhibitor, and vc is the initial rate of the control assay containing only DMSO. IC50 values were calculated based on the percentage of inhibition and concentration of the inhibitor using non-linear regression with least squares on GraphPad Prism (v8.1, GraphPad software, La Jolla, CA, USA). […]

Where [4] appears, read: Trypanosoma cruzi, LLC-MK2, 72 h.

`O=C1c2cccc3cccc(c23)C(=O)N1CCCNCCCCNCCCNCCCN1C(=O)c2cccc3cccc(c23)C1=O` [BNIP-spermidine, bisnaphthalimidopropyl-spermidine]: the “performance in the mouse model of Chagas disease” value with Chagas disease is recorded as “performed poorly”. In addition, the “inhibition of NAD+-dependent deacetylase activity” value in data set [1] is given as “inhibition”.

As for `O=C(Cn1ccnc1[N+](=O)[O-])NCc1ccccc1` [BZN, benznidazole, reference compound], the half-maximal inhibitory concentration (IC50) – broadly, the point on the concentration scale where inhibition reaches its midpoint – amounted to 9.33 ± 0.01 µM on TcSir2 (read-out: IC50 (TcSir2)) and 4.55 ± 0.03 µM with T. cruzi amastigote (setting [4]). For the same molecule, in data set [2], the EC50 (usually the concentration giving half of the maximal effect) at 72 h is 204.1 ± 0.81 µM.

Turning to `O=C(NCc1coc(-c2ccccc2)n1)Nc1ccc(-c2noc(C(F)(F)F)n2)cc1` [CDMS-01], the Ki (commonly a measure of affinity in units of concentration, obtained from inhibition or displacement) on TcSir2 was found to be 21.5 µM. For the same molecule, the Vmax at TcSir2 (3 µM CDMS-01), at TcSir2 (5 µM CDMS-01), on TcSir2 (10 µM CDMS-01), on TcSir2 (17 µM CDMS-01), on TcSir2 (20 µM CDMS-01) and on TcSir2 (30 µM CDMS-01) was 0.29 µM each time. Further, the Vmax at TcSir2 (40 µM CDMS-01) was determined as 0.29 µM. The IC50 is 40 µM at TcSir2 (IC50 (TcSir2)), 76.7 µM in the data set with T. cruzi amastigote (setting [4]), 76.68 ± 0.02 µM in the data set on T. cruzi amastigote (72 h) and 136 µM in the data set with LLCMK2 cells. Moreover, the inhibition mechanism result at TcSir2 (effect on apparent Km and Vmax for NAD+) is recorded as “competitive”. In data set [2], the EC50 at 72 h turned out to be 135.9 ± 0.5 µM.

For the molecule `NC(=O)c1cccnc1` [Nicotinamide, reference compound], the IC50 on TcSir2 (IC50 (TcSir2)) amounted to 987.4 ± 0.64 µM. Besides, the “inhibition of NAD+-dependent deacetylase activity” value in data set [1] is “inhibition”.

As to Abz-Gly-Pro-AcetylLys-Ser-Gln-EDDnp, the Km – broadly, the substrate concentration at which the rate is half of its maximum – on TcSir2 (TcSir2, r2 = 0.97, read-out: Km for the peptide substrate) was determined as 2.1 µM.

B1: TcSir2 (Trypanosoma cruzi strain CL Brener) (protein)
chain: MNQDNANFLHVVGEPTFEALARYIERNNVTKILVMAGAGISVAAGIPDFRSPHTGIYARLGKYNLNSPTDAFSITLLRERPDVFYSIVREMDLWPGHFWPTLVHHFIKLLADEGRLLRCCTQNIDGLERASGLPMSFLVEAHGSFSTASCIECRSPYDIELASRESREGKVPHCDRCGGVVKPDVVFFGESLPDAFFNVFAEITEVELLLIMGTSLQVHPFAELAVRVRPDVPRVLFNLERVGGAMFRFPTDEPTLNSFSRNHTGNSHSSSNSSSSSSSSSSDGYSQFANHAADAGGICRDIFFPGDCQLSVRRLAEAMGLGERLALAVREGEKKRESYGACESGNTHHTHMYTLTDRK
For B1, the Michaelis constant (Km) in data set [3] is listed as 25 µM.
